Holding throughout (format): nucleic-acid assay
Assay [1] relates to Nucleic Acid. Briefly: Cu(II) complex for cleavage of phi X174 RF plasmid DNA from intact form I to nicked form II at 250 uM compound and 200 uM Cu(II).
Assay [2] relates to Nucleic Acid. Briefly: Cu(II) complex for cleavage of phi X174 RF plasmid DNA from intact form I to nicked form II at 350 uM of Cu(II).
The subject of assay [3] is Nucleic Acid. The assay is described as follows: Cu(II) complex for cleavage of phi X174 RF plasmid DNA from intact form I to nicked form II at 250 uM compound and 100 uM Cu(II).

In the case of H-GGHGYSPTSPSYGK-NH2, the Activity with Nucleic Acid [1] is 70%; in the assay with Nucleic Acid [2] it was greater than 90%; in the assay on Nucleic Acid [3], 50%.

(Values after ChEMBL document CHEMBL1126982, “Design and synthesis of a DNA-cleaving metallopeptide” (Bioorg Med Chem Lett, 1993).)
